Converted amounts (≈) assume the structure as drawn.
Key:
[1] = tested on: male LDLR−/− mice; assay: Compound effects in diet-induced hyperlipidemic LDLR-/- mice (plasma triglyceride and cholesterol); format: in vivo, mouse
Description: Young adult male mice (˜8 weeks of age) were purchased from conventional vendors and group housed (3-4/cage) with ad libitum access to chow and water, in a temperature- and light-controlled vivarium (lights on at 06:00 hours, off at 18:00 hours). Compounds were administered daily by oral gavage in the morning (˜08:00 hrs), in a final volume of 0.1 ml/mouse, with the first dose of compound delivered on study day 0. Compounds were solubilized by gentle mixing in PEG400:Tween80 (4:1) for at least several hours and usually overnight prior to initiation of dosing. When necessary, solutions were sonicated briefly to ensure complete compound solubilization.
Blood samples (˜0.15 ml/mouse) were obtained from the retro-orbital sinus of non-fasted isoflurane-anesthetized mice, 3 hours after drug dosing. Blood samples were collected into heparin-coated tubes, and plasma was recovered following centrifugation. Plasma total cholesterol and triglyceride levels were determined by […] enzymatic commercially available assays that were adapted to 96-well plate formats. Plasma HDL cholesterol (HDL-C) was determined by removing non-HDL-C from the plasma with a precipitating reagent, and then determining the plasma cholesterol levels in the remaining HDL-C fraction. Plasma triglycerides concentrations, determined from a blood sample obtained in the 24 hours prior to the first dose, were used to group the mice such that the pre-study triglyceride levels between groups were equivalent prior to initiation of the dosing regimen.
Male LDLR^−/− mice (JAX Mice, Bar Harbor, Me.) consumed a purified “Western” diet (˜21% fat, 0.02% cholesterol w/w) ad libitum, for two weeks prior to and during treatment with Compound C daily by oral gavage at a dose of 10 mg/kg/day for 7 days (n=9-10/group).
In a separate study utilizing the same mouse model ([…]) subjected to the dietary lead-in for 8 weeks, LDLR^−/− mice were treated with Compound B at a dose of 10 mg/kg/day for 6 weeks.

[2] = tested on: patients with hypertriglyceridemia; settings: cited from earlier work
[3] = physchem; settings: pH 7.4, aqueous buffer, kinetic from dmso stock
[4] = molecular target: T1, human farnesoid X receptor (Homo sapiens, UniProt Q96RI1); assay: FXR in vitro assays (farnesoid X receptor/ECREx7 co-transfection assay, TR-FRET assay), Table I; format: cell-based; settings: for EC50: agonist activity, one or more of the in vitro assays, read-out: EC50; for Emax: read-out: % Efficacy
T1 construct: CMX-farnesoid X receptor (full length human farnesoid X receptor); expressed in transfected cells; host or cells: CV-1 African Green Monkey Kidney cells
T1 sequence (Q96RI1 1-472 isoform Q96RI1-2): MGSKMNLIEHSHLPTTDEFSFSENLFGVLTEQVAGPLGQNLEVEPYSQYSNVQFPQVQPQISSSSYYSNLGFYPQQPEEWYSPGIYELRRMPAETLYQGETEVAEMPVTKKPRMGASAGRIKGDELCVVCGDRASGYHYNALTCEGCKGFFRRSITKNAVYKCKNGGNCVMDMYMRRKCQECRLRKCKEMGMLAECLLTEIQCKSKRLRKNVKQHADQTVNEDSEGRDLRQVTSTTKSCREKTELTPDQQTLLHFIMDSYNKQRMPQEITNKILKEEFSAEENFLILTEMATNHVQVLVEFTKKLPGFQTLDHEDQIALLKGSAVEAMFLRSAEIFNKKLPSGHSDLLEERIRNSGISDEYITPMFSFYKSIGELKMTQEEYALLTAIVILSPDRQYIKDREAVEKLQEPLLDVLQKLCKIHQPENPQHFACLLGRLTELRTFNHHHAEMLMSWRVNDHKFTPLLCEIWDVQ
T1 sequence (P19793 1-462 partner): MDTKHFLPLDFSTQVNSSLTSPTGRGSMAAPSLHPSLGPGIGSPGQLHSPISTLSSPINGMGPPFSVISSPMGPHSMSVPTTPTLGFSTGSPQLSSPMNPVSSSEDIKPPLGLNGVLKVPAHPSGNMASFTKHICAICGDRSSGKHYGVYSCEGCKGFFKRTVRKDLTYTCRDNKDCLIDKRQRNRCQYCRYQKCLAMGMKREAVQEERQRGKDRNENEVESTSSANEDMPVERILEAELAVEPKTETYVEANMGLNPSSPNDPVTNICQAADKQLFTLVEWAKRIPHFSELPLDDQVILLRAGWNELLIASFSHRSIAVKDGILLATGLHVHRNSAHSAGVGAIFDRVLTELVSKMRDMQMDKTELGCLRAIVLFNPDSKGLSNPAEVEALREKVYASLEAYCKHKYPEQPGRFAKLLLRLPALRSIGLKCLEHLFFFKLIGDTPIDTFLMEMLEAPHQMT
Outline: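 CV-1 monkey kidney cells transfected for an FXR/ECREx7 luciferase co-transfection reporter; luciferase read 18-20 h later in lysates. 8-point dose-response at ½-log spacing, 4 wells per point; EC50/IC50 from four-parameter Hill fit, averaged over at least 3 independent experiments.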

[5] = Western diet 8 weeks lead-in, 10 mg/kg/day for 6 weeks

Row | Compound | solubility kinetic at 1.5 h [3] [µM] | EC50 [4] [nM] | Emax [4] [%] | other results
1 | CCOC(=O)C1=CN(C(=O)c2ccc(F)c(F)c2)CC(C)(C)c2c1[nH]c1ccccc21 [Compound B, Ethyl 3-(3,4-difluorobenzoyl)-1,1-dimethyl-1,2,3,6-tetrahydro-azepino[4,5-b]indole-5-carboxylate] | – | – | – | plasma cholesterol concentrations [1, 5]: lowered; plasma triglyceride concentrations [1, 5]: lowered
2 | C[C@H](CCC(=O)O)[C@H]1CC[C@H]2[C@@H]3[C@H](O)C[C@@H]4C[C@H](O)CC[C@]4(C)[C@H]3CC[C@]12C [CDCA, chenodeoxycholic acid] | – | – | – | plasma triglyceride levels [2]: significantly lowers
3 | CC(C)OC(=O)C1=CN(C(=O)c2ccc(F)c(F)c2)CC(C)(C)c2c1[nH]c1ccccc21 [Compound C, isopropyl 3-(3,4-difluorobenzoyl)-1,1-dimethyl-1,2,3,6-tetrahydroazepino[4,5-b]indole-5-carboxylate] | – | – | – | plasma triglyceride concentrations ([1]; Western diet 2 weeks lead-in, 10 mg/kg/day oral gavage, study day 7): reduced plasma triglyceride concentrations to the level observed prior to introduction of the high-fat chow; lowering of plasma total cholesterol levels ([1]; Western diet 2 weeks lead-in, 10 mg/kg/day oral gavage, study day 7, p<0.05 vs. vehicle): ~40%; plasma lipid profiles ([1]; daily dosing throughout the 6 weeks of study, continued Western diet): sustained normalization
4 | CC(C)OC(=O)C1=CN(C(=O)c2cc(F)cc(C(F)(F)F)c2)CC(C)(C)c2c1[nH]c1ccccc21 [Example 134, 1-methylethyl 3-{[3-fluoro-5-(trifluoromethyl)phenyl]car-bonyl}-1,1-dimethyl-1,2,3,6-tetrahydroazepino[4,5-b]indole-5-carboxylate] | 1 to 10 (≈ 0.488 to 4.88 µg/mL) | 10 to 100 | > 100 | –
5 | CC(C)OC(=O)C1=CN(C(=O)N2CCN(CC3CCN(C)CC3)CC2)CC(C)(C)c2c1[nH]c1ccccc21 [Example 29, 1-methylethyl 1,1-dimethyl-3-({4-[(1-methylpiperidin-4-yl)methyl]piperazin-1-yl}carbonyl)-1,2,3,6-tetrahydroazepino [4,5-b]indole-5-carboxylate] | > 10 | 1000 to 10000 | 40 to 60 | –
6 | CCCN1CCN(C(=O)N2C=C(C(=O)OC(C)C)c3[nH]c4ccccc4c3C(C)(C)C2)CC1 [Example 31] | 1 to 10 (≈ 0.453 to 4.53 µg/mL) | 100 to 1000 | > 100 | –
7 | CC(C)OC(=O)C1=CN(C(=O)NC2CCCNC2)CC(C)(C)c2c1[nH]c1ccccc21 (stereo not drawn) [Example 56, 1-methylethyl 1,1-dimethyl-3-[(piperidin-3-ylamino)carbonyl]-1,2,3,6-tetrahydro azepino[4,5-b]indole-5-carboxylate] | > 10 | 1000 to 10000 | < 40 | –
8 | CC(CO)OC(=O)C1=CN(C(=O)c2ccc(F)c(F)c2)CC(C)(C)c2c1[nH]c1ccccc21 (stereo not drawn) [Example 193, 2-hydroxy-1-methylethyl 3-[(3,4-difluorophenyl)carbonyl]-1,1-dimethyl-1,2,3,6-tetrahydroazepino[4,5-b]indole-5-carboxylate] | 1 to 10 (≈ 0.454 to 4.54 µg/mL) | 10 to 100 | > 100 | –
9 | CC(C)OC(=O)C1=CN(C(=O)c2ccc(C(F)(F)F)c(F)c2F)CC(C)(C)c2c1[nH]c1ccccc21 [Example 138, 1-methylethyl 3-{[2,3-difluoro-4-(trifluoromethyl)phenyl]car-bonyl}-1,1-dimethyl-1,2,3,6-tetrahydroazepino[4,5-b]indole-5-carboxylate] | 0.1 to 1 (≈ 0.0506 to 0.506 µg/mL) | 10 to 100 | > 100 | –
10 | CC(=O)N1CCCN(Cc2cccc(C(=O)N3C=C(C(=O)OC(C)C)c4[nH]c5ccccc5c4C(C)(C)C3)c2)CC1 [Example 177, 1-methylethyl 3-({3-[(4-acetyl-1,4-diazepan-1-yl)methyl]phenyl}carbonyl)-1,1-dimethyl-1,2,3,6-tetrahydroazepino[4,5-b]indole-5-carboxylate] | 1 to 10 (≈ 0.557 to 5.57 µg/mL) | 100 to 1000 | > 100 | –
11 | CC(C)OC(=O)C1=CN(C(=O)N2CCCC(N(C)C)C2)CC(C)(C)c2c1[nH]c1ccccc21 (stereo not drawn) [Example 39, 1-methylethyl 3-{[3-(dimethylamino)piperidin-1-yl]carbonyl}-1,1-dimethyl-1,2,3,6-tetrahydroazepino[4,5-b]indole-5-carboxylate] | > 10 | 100 to 1000 | > 100 | –

Source: patent publication US20090203577A1 (EXELIXIS, INC., priority 2005, published 2009)
